In patent US5449752A, “Polypeptides with affinity to lipopolysaccharides and their uses” (Seikagaku Kogyo K.K., priority 1991, dated 1995):
Values after ≈ are worked out from the molar mass of the structure shown. Positions of bridges follow the written chain, without caps; N, C: chain ends. Residues, ends and D or L forms follow the SMILES beside them. No end group written: not given here.

Experiments:
[1] = tested on: HIV; assay: Antiviral activity against HIV in HIV-infected MT-4 cells (MTT method); format: cell-based, human immunodeficiency virus; conditions: for EC50 (concentration at which cell death due to HIV infection is 50% inhibited): HIV-infected MT-4 cells, MOI 0.001, 37° C., 5 days, MTT method; for selectivity in killing HIV infected cells (in words): MT-4 cells, Table III; for selectivity index higher than for any of the known high endotoxin affinity compounds: compared with Tachyplesins and Polyphemusins of Table III; for SI (CC50 /EC50): rough ratio of CC50 to EC50, MT-4 cells
Protocol: The antiviral activity-against HIV of the polypeptide (1) synthesized in Example 1 as well as polypeptides (2), (3), (4), (7), (12), (13), (14), (20), (21) and (26) was tested and evaluated according to the following method.
(§1) HIV-infected MT-4 cells (2.5×10^4 cells/well, multiplicity of infection (MOI): 0.001) immediately after infection were added together with the test substance with various changes of the concentration to a 96-well microtitre plate. After incubation at 37° C. for 5 days in a CO2 incubator, the number of survivor cells was measured by the MTT method [Pauwels et al.; J. Virol. Methods, 20, 309-321 (1988)]. The antiviral activity is expressed as a concentration at which cell death due to HIV infection is 50% inhibited (EC50 : 50% effective concentration). On the other hand, in order to know the cytotoxicity of the test substance on the MT-4 cells, virus-noninfected cells are incubated, likewise as above, together with the test compound with various changes of the concentration. The cytotoxicity is expressed as 50% cytotoxic concentration […] due to the test substance. Further, the rough ratio of CC50 to EC50 (CC50 /EC50) is expressed as an effective ratio (SI=selectivity index).

[2] = tested on: MT-4 cells; assay: Cytotoxicity on virus-noninfected MT-4 cells (MTT method); format: cell-based; conditions: 37° C., 5 days
Protocol: as §1

Row | Compound | EC50 (concentration at which cell death due to HIV infection is 50% inhibited) [1] | selectivity in killing HIV infected cells (in words) [1] | selectivity index higher than for any of the known high endotoxin affinity compounds [1] | CC50 (50% cytotoxic concentration) [2] | SI (CC50 /EC50) [1]
1 | N=C(N)NCCC[C@H](NC(=O)[C@@H]1CSSC[C@H](NC(=O)[C@H](Cc2c[nH]c3ccccc23)NC(=O)[C@H](CCCNC(=N)N)NC(=O)[C@@H](N)CCCNC(=N)N)C(=O)N[C@@H](Cc2ccc(O)cc2)C(=O)N[C@@H](CCCNC(=N)N)C(=O)N[C@@H](CCCCN)C(=O)N[C@H]2CSSC[C@H](NC(=O)[C@H](Cc3ccc(O)cc3)NC(=O)CNC(=O)[C@H](CCCNC(=N)N)NC(=O)[C@H](Cc3ccc(O)cc3)NC2=O)C(=O)N[C@@H](Cc2ccc(O)cc2)C(=O)N[C@@H](CCCNC(=N)N)C(=O)N[C@@H](CCCCN)C(=O)N1)C(N)=O [polypeptide (14), ArgArgTrpCysTyrArgLysCysTyrArgGlyTyrCysTyrArgLysCysArgNH2] (H-RRWCYRKCYRGYCYRKCR-NH2; disulfide 4-17, 8-13; N-terminus assumed) | 0.018 µg/mL (≈ 0.00716 µM) | particularly selective | at least 7 fold | 52 µg/mL (≈ 20.7 µM) | –
2 | N=C(N)NCCC[C@H](NC(=O)[C@H](CCCNC(=N)N)NC(=O)[C@@H]1CSSC[C@H](NC(=O)[C@H](Cc2c[nH]c3ccccc23)NC(=O)[C@H](CCCNC(=N)N)NC(=O)[C@@H](N)CCCNC(=N)N)C(=O)N[C@@H](Cc2ccc(O)cc2)C(=O)N[C@@H](CCCNC(=N)N)C(=O)N[C@@H](CCCCN)C(=O)N[C@H]2CSSC[C@H](NC(=O)[C@H](Cc3ccc(O)cc3)NC(=O)CNC(=O)[C@H](CCCCN)NC(=O)[C@H](Cc3ccc(O)cc3)NC2=O)C(=O)N[C@@H](Cc2ccc(O)cc2)C(=O)N[C@@H](CCCNC(=N)N)C(=O)N[C@@H](CCCCN)C(=O)N1)C(N)=O [polypeptide (2), ArgArgTrpCysTyrArgLysCysTyrLysGlyTyrCysTyrArgLysCysArgArgNH2] (H-RRWCYRKCYKGYCYRKCRR-NH2; disulfide 4-17, 8-13; N-terminus assumed) | 1.26 µg/mL (≈ 0.477 µM) | – | – | 200 µg/mL (≈ 75.7 µM) | –
3 | Cc1cn([C@H]2C[C@H](N=[N+]=[N-])[C@@H](CO)O2)c(=O)[nH]c1=O [AZT, reference compound] | 4.8 µg/mL (≈ 18 µM) | – | – | 6.8 µg/mL (≈ 25.4 µM) | –
4 | ArgArgTyrCysTyrArgLysCysTyrLysGlyTyrCysTrpArgLysCysArgNH2 (RRYCYRKCYKGYCWRKCR-NH2; cysteine pairing not given here) [polypeptide (7)] | 0.36 µg/mL | – | – | 100 µg/mL | 278
5 | N=C(N)NCCC[C@H](NC(=O)[C@@H]1CSSC[C@H](NC(=O)[C@H](Cc2c[nH]c3ccccc23)NC(=O)[C@H](CCCNC(=N)N)NC(=O)[C@@H](N)CCCNC(=N)N)C(=O)N[C@@H](Cc2ccc(O)cc2)C(=O)N[C@@H](CCCNC(=N)N)C(=O)N[C@@H](CCCCN)C(=O)N[C@H]2CSSC[C@H](NC(=O)[C@H](Cc3ccccc3)NC(=O)CNC(=O)[C@H](CCCCN)NC(=O)[C@H](Cc3ccc(O)cc3)NC2=O)C(=O)N[C@@H](Cc2ccc(O)cc2)C(=O)N[C@@H](CCCNC(=N)N)C(=O)N[C@@H](CCCCN)C(=O)N1)C(N)=O [polypeptide (13), ArgArgTrpCysTyrArgLysCysTyrLysGlyPheCysTyrArgLysCysArgNH2] (H-RRWCYRKCYKGFCYRKCR-NH2; disulfide 4-17, 8-13; N-terminus assumed) | 0.009 µg/mL (≈ 0.00364 µM) | particularly selective | at least 7 fold | 52 µg/mL (≈ 21 µM) | –
6 | CC[C@H](C)[C@@H]1NC(=O)CNC(=O)[C@H](CCCNC(=N)N)NC(=O)[C@H](Cc2ccc(O)cc2)NC(=O)[C@@H]2CSSC[C@H](NC1=O)C(=O)N[C@@H](Cc1ccc(O)cc1)C(=O)N[C@@H](CCCNC(=N)N)C(=O)N[C@@H](CCCCN)C(=O)N[C@H](C(=O)N[C@@H](CCCNC(=N)N)C(N)=O)CSSC[C@H](NC(=O)[C@H](Cc1c[nH]c3ccccc13)NC(=O)[C@@H](N)CCCNC(=N)N)C(=O)N[C@@H](Cc1ccccc1)C(=O)N[C@@H](CCCNC(=N)N)C(=O)N[C@@H](C(C)C)C(=O)N2 [Tachyplesin II, ArgTrpCysPheArgValCysTyrArgGlyIleCysTyrArgLysCysArg NH2, reference compound] (H-RWCFRVCYRGICYRKCR-NH2; disulfide 3-16, 7-12) | – | – | – | 36 µg/mL (≈ 15.9 µM) | 6
7 | N=C(N)NCCC[C@H](NC(=O)[C@@H]1CSSC[C@H](NC(=O)[C@H](Cc2c[nH]c3ccccc23)NC(=O)[C@H](CCCNC(=N)N)NC(=O)[C@@H](N)CCCNC(=N)N)C(=O)N[C@@H](Cc2ccc(O)cc2)C(=O)N[C@@H](CCCNC(=N)N)C(=O)N[C@@H](CCCCN)C(=O)N[C@H]2CSSC[C@H](NC(=O)[C@H](Cc3ccccc3)NC(=O)CNC(=O)[C@H](CCCCN)NC(=O)[C@H](Cc3ccccc3)NC2=O)C(=O)N[C@@H](Cc2ccc(O)cc2)C(=O)N[C@@H](CCCNC(=N)N)C(=O)N[C@@H](CCCCN)C(=O)N1)C(N)=O [polypeptide (20), ArgArgTrpCysTyrArgLysCysPheLysGlyPheCysTyrArgLysCysArgNH2] (H-RRWCYRKCFKGFCYRKCR-NH2; disulfide 4-17, 8-13; N-terminus assumed) | 0.01 µg/mL (≈ 0.00407 µM) | – | – | 54 µg/mL (≈ 22 µM) | –
8 | N=C(N)NCCC[C@H](NC(=O)[C@@H]1CSSC[C@H](NC(=O)[C@H](Cc2c[nH]c3ccccc23)NC(=O)[C@H](CCCNC(=N)N)NC(=O)[C@@H](N)CCCNC(=N)N)C(=O)N[C@@H](Cc2ccc(O)cc2)C(=O)N[C@@H](CCCCN)C(=O)N[C@@H](CCCNC(=N)N)C(=O)N[C@H]2CSSC[C@H](NC(=O)[C@H](Cc3ccc(O)cc3)NC(=O)CNC(=O)[C@H](CCCCN)NC(=O)[C@H](Cc3ccc(O)cc3)NC2=O)C(=O)N[C@@H](Cc2ccc(O)cc2)C(=O)N[C@@H](CCCCN)C(=O)N[C@@H](CCCNC(=N)N)C(=O)N1)C(N)=O [polypeptide (12), ArgArgTrpCysTyrLysArgCysTyrLysGlyTyrCysTyrLysArgCysArgNH2] (H-RRWCYKRCYKGYCYKRCR-NH2; disulfide 4-17, 8-13; N-terminus assumed) | 0.49 µg/mL (≈ 0.197 µM) | particularly selective | at least 7 fold | 245 µg/mL (≈ 98.5 µM) | –
9 | N=C(N)NCCC[C@H](NC(=O)[C@@H]1CSSC[C@H](NC(=O)[C@H](Cc2c[nH]c3ccccc23)NC(=O)[C@@H](N)CCCNC(=N)N)C(=O)N[C@@H](Cc2ccc(O)cc2)C(=O)N[C@@H](CCCNC(=N)N)C(=O)N[C@@H](CCCCN)C(=O)N[C@H]2CSSC[C@H](NC(=O)[C@H](Cc3ccccc3)NC(=O)CNC(=O)[C@H](CCCCN)NC(=O)[C@H](Cc3ccccc3)NC2=O)C(=O)N[C@@H](Cc2ccc(O)cc2)C(=O)N[C@@H](CCCNC(=N)N)C(=O)N[C@@H](CCCCN)C(=O)N1)C(N)=O [polypeptide (21), ArgTrpCysTyrArgLysCysPheLysGlyPheCysTyrArgLysCysArgNH2] (H-RWCYRKCFKGFCYRKCR-NH2; disulfide 3-16, 7-12; N-terminus assumed) | 0.08 µg/mL (≈ 0.0348 µM) | – | – | 53 µg/mL (≈ 23.1 µM) | –
10 | N=C(N)NCCC[C@H](NC(=O)[C@@H]1CSSC[C@H](NC(=O)[C@H](Cc2c[nH]c3ccccc23)NC(=O)[C@H](CCCNC(=N)N)NC(=O)[C@@H](N)CCCNC(=N)N)C(=O)N[C@@H](Cc2ccc(O)cc2)C(=O)N[C@@H](CCCNC(=N)N)C(=O)N[C@@H](CCCCN)C(=O)N[C@H]2CSSC[C@H](NC(=O)[C@H](Cc3ccc(O)cc3)NC(=O)CNC(=O)[C@H](CCCCN)NC(=O)[C@H](Cc3ccc(O)cc3)NC2=O)C(=O)N[C@@H](Cc2ccc(O)cc2)C(=O)N[C@@H](CCCNC(=N)N)C(=O)N[C@@H](CCCCN)C(=O)N1)C(N)=O [polypeptide (1)] (H-RRWCYRKCYKGYCYRKCR-NH2; disulfide 4-17, 8-13) | – | – | – | 54 µg/mL (≈ 21.7 µM) | 10800
11 | N=C(N)NCCC[C@H](NC(=O)[C@@H]1CSSC[C@H](NC(=O)[C@H](Cc2c[nH]c3ccccc23)NC(=O)[C@@H](N)CCCNC(=N)N)C(=O)N[C@@H](Cc2ccc(O)cc2)C(=O)N[C@@H](CCCNC(=N)N)C(=O)N[C@@H](CCCCN)C(=O)N[C@H]2CSSC[C@H](NC(=O)[C@H](Cc3ccccc3)NC(=O)CNC(=O)[C@H](CCCCN)NC(=O)[C@H](Cc3ccc(O)cc3)NC2=O)C(=O)N[C@@H](Cc2ccc(O)cc2)C(=O)N[C@@H](CCCNC(=N)N)C(=O)N[C@@H](CCCCN)C(=O)N1)C(N)=O [polypeptide (3), ArgTrpCysTyrArgLysCysTyrLysGlyPheCysTyrArgLysCysArgNH2] (H-RWCYRKCYKGFCYRKCR-NH2; disulfide 3-16, 7-12; N-terminus assumed) | 0.07 µg/mL (≈ 0.0302 µM) | particularly selective | at least 7 fold | 50 µg/mL (≈ 21.6 µM) | –
